Active and inactive are the calls of the source. The rule behind the calls is not given here.
Key:
MCF7 [1] = assay: Cytotoxicity against human MCF7 cells at 50 umol/L; type: functional, cell-based
HepG2 [2] = assay: Cytotoxicity against human HepG2 cells at 50 umol/L; type: functional, cell-based
HMO2 = assay: Cytotoxicity against human HMO2 cells at 50 umol/L; type: functional, cell-based
MCF7 [3] = assay: Cytotoxicity against human MCF7 cells; type: functional
HepG2 [4] = assay: Cytotoxicity against human HepG2 cells; type: functional
[5] = Cytotoxicity against human HMO2 cells; type: functional
[6] = Cytotoxicity against human KATO III cells; type: functional, KATO III cell

| Compound | Activity (MCF7 [1]) | Activity (HepG2 [2]) | Activity (HMO2) | GI50 (MCF7 [3]) [nM] | TGI (MCF7 [3]) [nM] | GI50 (HepG2 [4]) [nM] | TGI (HepG2 [4]) [nM] | GI50 [5] [nM] | TGI [5] [nM] | GI50 [6] [nM] | TGI [6] [nM] |
| --- | --- | --- | --- | --- | --- | --- | --- | --- | --- | --- | --- |
| C/C=C1/C2=CCCN3C(=O)O[C@H]([C@H]1O)[C@H]23 | inactive | inactive | inactive | – | – | – | – | – | – | – | – |
| C/C=C1/C2=CCCN3C(=O)O[C@H]([C@H]1O[C@@H]1OC[C@@H](O)[C@H](O)[C@H]1O)[C@H]23 | – | – | – | 10000 | 30000 | 300 | 5000 | 150 | > 50000 | 700 | 1000 |

Source: ChEMBL document CHEMBL1150219, “New co-metabolites of the streptazolin pathway” (2001)
